Results on seven compounds are retold here after patent US8541462B2, “Tetrahydrocarbazole derivatives as ligands of G-protein coupled receptors” (AEterna Zentaris GmbH, priority 2007, dated 2013).

The series in a line: Metabolic stability testing in liver microsomes. The class given is in vitro ADME. The conditions noted are these: mixed-gender human liver microsomes, 1 mg microsomal protein/mL, initial concentration 10 μM, 60 minutes at 37° C.; WO 2006/005484-substance 7 = 100%. The method, then: Subcellular fractions of different tissues can be prepared easily by ultracentrifugation. Most commonly these are prepared from the liver of animals and human donors to gain information about the potential hepatic clearance of compounds (first-pass elimination of drugs). Human or animal (e.g. dog, mouse, rat) subcellular fraction like liver microsomes, or possibly the fraction called S9 have therefore become a very commonly and widely used as an in vitro model to investigate mainly cytochrome P450 dependent phase I (but also phase II) metabolism that takes place in the liver.
In order to reflect the standard proportion of the enzymes in human and animal livers, liver microsomes are usually pooled from a number of […] of the same sex (or mixed-gender). By supplementing the liver microsomes with relevant cofactors and other components it is possible to investigate and distinguish between CYPs, flavin-containing monooxygenase (FMO) and UDP-glucuronosyltransferase (UGT) activities.
Selected compounds of the invention were tested for their stability in mixed-gender human liver microsomes and compared to pertinent prior art compounds.
Under the test conditions applied (1 mg microsomal protein/mL, initial concentration of 10 μM, and incubation for 60 minutes at 37° C.) the following normalized results were obtained.
Take `CCOC(=O)c1csc(C(NC(=O)[C@@]2(NC(=O)[C@@H](NC(=O)Cc3ccccc3F)[C@@H](C)CC)CCc3[nH]c4c(C(F)(F)F)cccc4c3C2)[C@@H](C)CC)n1` (stereo in doubt) [compound 251, 2-{(1R,2S)-1-[((R)-3-{(2S,3S)-2-[2-(2-Fluoro-phenyl)-acetylamino]-3-methyl-pentanoylamino}-8-trifluoromethyl-2,3,4,9-tetrahydro-1H-carbazole-3-carbonyl)-amino]-2-methyl-butyl}-thiazole-4-carboxylic acid ethyl ester]: the Normalized microsomal stability came out at 1033%.
As for `CCC(C)[C@H](NC(=O)Cc1ccccc1F)C(=O)N[C@]1(C(=O)N[C@H](C(=O)NC2CCC(O)CC2)C(C)CC)CCc2[nH]c3c(C(F)(F)F)cccc3c2C1` (stereo partly drawn) [Compound 73, (R)-3-{(S)-2-[2-(2-Fluoro-phenyl)-acetylamino]-3-methyl-pentanoylamino}-8-trifluoromethyl-2,3,4,9-tetrahydro-1H-carbazole-3-carboxylic acid [(S)-1-(4-hydroxy-cyclohexylcarbamoyl)-2-methyl-butyl]-amide], the Normalized microsomal stability turned out to be 624%.
Compound `CCC(C)[C@H](NC(=O)Cc1ccccc1F)C(=O)N[C@]1(C(=O)N[C@H](C(=O)Nc2ccc3ncccc3c2)C(C)CC)CCc2[nH]c3c(C(F)(F)F)cccc3c2C1` (stereo partly drawn) [compound 137, (R)-3-{(S)-2-[2-(2-Fluoro-phenyl)-acetylamino]-3-methyl-pentanoylamino}-8-trifluoromethyl-2,3,4,9-tetrahydro-1H-carbazole-3-carboxylic acid [(S)-2-methyl-1-(quinolin-6-ylcarbamoyl)-butyl]-amide] had a Normalized microsomal stability of 1296%.
As to `CCC(C)[C@H](NC(=O)Cc1ccccc1F)C(=O)N[C@]1(C(=O)N[C@H](C(=O)NN2CCOCC2)C(C)CC)CCc2[nH]c3c(C(F)(F)F)cccc3c2C1` (stereo partly drawn) [compound 219, (R)-3-{(S)-2-[2-(2-Fluoro-phenyl)-acetylamino]-3-methyl-pentanoylamino}-8-trifluoromethyl-2,3,4,9-tetrahydro-1H-carbazole-3-carboxylic acid [(S)-2-methyl-1-(morpholin-4-ylcarbamoyl)-butyl]-amide], the Normalized microsomal stability worked out at 452%.
In turn, `CCOC(=O)c1csc([C@@H](NC(=O)[C@@]2(NC(=O)[C@@H](NC(=O)NCc3ccccc3F)[C@@H](C)CC)CCc3[nH]c4c(C(F)(F)F)cccc4c3C2)[C@@H](C)CC)n1` [compound 258, 2-{(1S,2S)-1-[((R)-3-{(2S,3S)-2-[3-(2-Fluoro-benzyl)-ureido]-3-methyl-pentanoylamino}-8-trifluoromethyl-2,3,4,9-tetrahydro-1H-carbazole-3-carbonyl)-amino]-2-methyl-butyl}-thiazole-4-carboxylic acid ethyl ester] gave a Normalized microsomal stability of 1215%.
Regarding `CCC(C)[C@H](NC(=O)NCc1ccc(OC)cc1)C(=O)N[C@]1(C(=O)N[C@H](C(N)=S)C(C)CC)CCc2[nH]c3c(C(F)(F)F)cccc3c2C1` (stereo partly drawn) [compound 239, (R)-3-{(S)-2-[3-(4-Methoxy-benzyl)-ureido]-3-methyl-pentanoylamino}-8-trifluoromethyl-2,3,4,9-tetrahydro-1H-carbazole-3-carboxylic acid ((S)-2-methyl-1-thiocarbamoyl-butyl)-amide], the Normalized microsomal stability is 307%.
As for `CCNC(=O)NC[C@@H](NC(=O)[C@@]1(NC(=O)[C@@H](NC(=O)Cc2ccccc2F)C(C)CC)CCc2[nH]c3c(C(F)(F)F)cccc3c2C1)C(C)CC` (stereo partly drawn) [compound 167, (R)-3-{(S)-2-[2-(2-Fluoro-phenyl)-acetylamino]-3-methyl-pentanoylamino}-8-trifluoromethyl-2,3,4,9-tetrahydro-1H-carbazole-3-carboxylic acid {(S)-1-[(3-ethyl-ureido)-methyl]-2-methyl-butyl}-amide], the figure is 274%.
